Laboratory results as given in PMC6272295, “In Vitro Neuroprotective Activities of Compounds from Angelica shikokiana Makino” (Molecules, 2015).
Where two headings read alike, the source gives them in different places.

How the values were obtained:
[1] = Scavenging of hydroxyl radical, 2-deoxyribose degradation assay; settings: for % Inhibition of deoxyribose degradation, Non Site-Specific: at 300 µM (maximum solubility in phosphate buffer)
Method: The inhibitory effect of bioactive compounds on deoxyribose degradation was determined by measuring the competition between deoxyribose and bioactive compounds for the hydroxyl radicals (^.OH) generated from the Fe^3+/ascorbate/EDTA/H2O2 system (referred to non-site-specific assay; the major activity measured is ^.OH scavenging) or an Fe^3+/ascorbate/H2O2 system (referred to as a site-specific assay; major activity measured is metal chelation). Both assays depend on the formation of a highly reactive hydroxyl radical, OH, by the interaction of iron ions with H2O2 through Fenton’s reaction. […] This assay was performed as previously described. Different concentrations of tested compounds were dissolved in 400 µL phosphate buffer (0.2 M, pH 7.4). Then, 50 µL of deoxyribose (60 mM), 50 µL of Na2EDTA (2 mM), 50 µL of FeCl3 (3.2 mM), 50 µL of H2O2 (60 mM) and 50 µL of ascorbic acid (2 mM) were added, and the total volume of the reaction mixture was adjusted to 1 mL with buffer. After water-bath incubation at 50 °C for 25 min, the reaction was terminated by 250 µL of trichloroacetic acid (10%, w/w). […] For site-specific hydroxyl-radical-scavenging activity, the reaction mixture was similar to the above method, except that EDTA was replaced by an equivalent volume of buffer.
IC50 values of isolated compounds in AChEI and scavenging of hydroxyl radical assays were calculated using Probit Analysis (SPSS Version 16.0 for Windows, SPSS Inc., Chicago, IL, USA) for five different concentrations in three independent experiments. Cell viability was expressed as a percentage of MTT reduction, assuming that the viability of cells treated with 1% DMSO as a negative control was 100%. […] All values are the mean ± SD of three independent experiments. Data were analyzed for statistical significance using one-way ANOVA, followed by Dunnet’s test as a post-hoc test with GraphPad Prism 5.0 software for Windows (Inc., San Diego, CA, USA).

[2] = biological target: T1, AChE from Electrophorus electricus (Electrophorus electricus, UniProt O42275); assay: biochemical; settings: Ellman's method; read-out: IC50 in the AChEI assay
T1 construct: purchased Sigma (St. Louis, MO, USA)
Method: AChEI activity was measured using Ellman’s method. AChE hydrolyzes the substrate ACTI into acetate and thiocholine. In a neutral and alkaline medium; thiocholine reacts with DTNB to give yellow colored 2-nitro-5-thiobenzoate, which can be detected spectrophotometrically at 405 nm. Briefly, in a 96-well plate, 25 µL of 15 mM ACTI, 125 µL of 3 mM DTNB in buffer B (50 mM Tris HCl, pH = 8, 0.1 M NaCl, 0.02 M MgCl2·6H2O), 50 µL of buffer A (50 mM Tris-HCl, PH 8, 0.1% BSA) and 25 µL of tested sample (dissolved in 25% DMSO) were mixed, and the absorbance was measured using a microplate reader (Biotek, Winooski, VT, USA) at 405 nm every 16 s ten times. Then, 25 µL of AChE (0.25 U/mL in buffer A) was added and the absorbance was measured ten times every 16 s. A solution of 25% DMSO was used as a negative control. Absorbance was plotted against time and enzyme activity was calculated from the slope of the line so obtained and expressed as a percentage compared to an assay using a buffer without any inhibitor. Fractions were tested at 400 µg/mL. To avoid any increase in absorbance due to the color of the compounds or spontaneous hydrolysis of the substrate, the absorbance before addition of the enzyme was subtracted from the absorbance after adding the enzyme.
IC50 values of isolated compounds in AChEI and scavenging of hydroxyl radical assays were calculated using Probit Analysis (SPSS Version 16.0 for Windows, SPSS Inc., Chicago, IL, USA) for five different concentrations in three independent experiments. Cell viability was expressed as a percentage of MTT reduction, assuming that the viability of cells treated with 1% DMSO as a negative control was 100%. Figures were built in Microsoft Excel 2010. All values are the mean ± SD of three independent experiments. Data were analyzed for statistical significance using one-way ANOVA, followed by Dunnet’s test as a post-hoc test with GraphPad Prism 5.0 software for Windows (Inc., San Diego, CA, USA).

neuro-2A cells [3] = assay: Protection against Aβ25-35-induced neurotoxicity (MTT); type: cell-based, Mouse; settings: for Protection against Aβ25-35: summary Table 4; for Protection against Aβ25-35: key: +: Weak activity; ++: Strong activity
Method: (§1) Neuro-2A cell line was maintained in Eagle’s Minimum Essential medium supplemented with 10% fetal bovine serum, 1% of 100× antibiotic—antimitotic agents (containing penicillin and streptomycin) in a humid atmosphere of 5% (v/v) CO2 and 95% (v/v) air at 37 °C. Neuro-2A cells were plated in 96-well cell culture plates at a density of 3 × 10^4 cells/well for H2O2 and intracellular ROS assays and 2.5 × 10^3 cells/well for the Aβ25-35-assay.
(§2) Cell viability was determined by MTT reduction assay. Briefly, after treatment with isolated compounds, the media was replaced by fresh one after washing the cells with 100 µL PBS and 20 µL of MTT (5 mg/mL) was added to each well. After 4 h incubation at 37 °C, the state of cells was checked under microscope to confirm either cytotoxicity in H2O2 and Aβ25-35 wells or protection in positive controls and isolated compounds ones. The supernatants were aspirated carefully, and 150 µL of DMSO was added to each well to dissolve the dark blue formazan crystals. The absorbance was measured using a microplate reader at 570 nm.
Similarly, the concentration of Aβ25-35 that decreased cell viability to about 50% was determined. […] So, the cells were incubated with different concentrations of the isolated compounds (6.25, 12.5, 25, 50 and 100 µM) and EGCG as a positive control for 3 h followed by Aβ25-35 treatment for 72 h.

Aβ25-35 = biological target: T2, Aβ25-35 (Homo sapiens, UniProt P05067); assay: Thioflavin T assay of Aβ25-35 aggregation; type: biochemical; settings: for effect on Th-T fluorescence (in words): 25-100 µM; for Decrease of ThT Fluorescence: summary Table 4; for decrease of Th-T fluorescence intensity: Aβ25-35 25 µM; for Decrease of ThT Fluorescence: key: +: Weak activity; ++: Strong activity
T2 construct: Aβ25-35 (25 µM) freshly prepared in PBS; purchased Sigma (St. Louis, MO, USA)
Method: Thioflavin T (ThT), abenzothiazole salt, is used to quantify misfolded protein aggregates and amyloid peptides. ThT is a non-fluorescent dye which, when it binds to amyloid rich aggregates, produces a fluorescent signal proportional to the quantity of amyloid aggregation. Aβ25-35 (25 µM) freshly prepared in PBS (50 mM, pH = 7.4) was incubated at 37 °C with or without different concentrations (100, 50, 25 µM) of isolated compounds at 37 °C and shaken at 300 rpm for 3 h. One hundred µL of each incubated sample was transferred to a 96-well plate, and five µM ThT was added. The ThT fluorescence was measured over 180 min at 10-min intervals at emission λ at 485 nm; and excitation λ at 442 nm using FlexStation 3 Microplate Reader (Molecular Devices, LLC, Sunnyvale, CA, USA), and data were managed by SoftMax Pro® 5.4.1 software. The samples were constantly shaken every 60 sec during the incubation. 1% DMSO and different concentrations of ECCG were taken as negative and positive controls, respectively. The area under the curve (AUC) was taken as indicative of fluorescence intensity. Fluorescence of samples and ThT without Aβ25-35 (sample blank) was detected and subtracted from the final AUC to prevent any interference.

[4] = tested on: intracellular ROS in Neuro-2A cells; assay: Scavenging of intracellular reactive oxygen species (Bes-H2O2-AC, DFF fluorescence); type: cell-based, Mouse; settings: summary Table 4; note: key: +: Weak activity; ++: Strong activity
Method: as §1
This assay was performed as previously described with some modifications. Briefly, Neuro-2A cells were seeded in 96-well Clear Fluorescence Black Plate (number 655090, Greiner Bio-one, Tokyo, Japan). Cells were treated with three different concentrations (25, 50, 100 µM) of the samples. After 2 h incubation, cells were subjected to oxidative stress using 600 µM of H2O2 for 30 min. The nucleus was stained by Hoechst 33342 (Dojindo, Kumamoto, Japan), and the amount of difluorofluorescein (DFF) released from the reaction of H2O2 and BES-H2O2-Ac was taken as an indication of the amount of intracellular H2O2 and ROS. Images of each well were acquired using an IN Cell Analyzer 1000 (GE Healthcare, Buckinghamshire, UK) using 360-nm (Hoechst 33342) and 480-nm (BES-H2O2-Ac) excitation filters and monitored through 460-nm and 535-nm emission filters, respectively. Developer software was used to analyze the images of Hoechst 33342 and BES-H2O2-Ac staining, and the resulting data were then applied to Spotfire Decision Site Client 8.2 software for visualizing the results.

neuro-2A cells [5] = assay: Protection against H2O2-induced neurotoxicity (MTT); type: cell-based, Mouse
Method: as §1, §2
H2O2 interacts with metals in the medium, producing highly cytotoxic hydroxyl radicals that induce neurotoxicity. So, active compounds are those that can scavenge free radicals and increase the cell viability. This assay was performed as previously described with slight modifications. Briefly, the concentration of H2O2 that decreased cell viability to about 50% was determined as follows: cells were cultured in a 96-well plate and after 24 h were further incubated with different concentrations of H2O2 (50, 100, 150, 200 µM) freshly prepared from 30% stock solution. After 24 h, cell viability was determined using the MTT reduction method. H2O2 at a concentration of 150 µM had the desired cytotoxicity and was used for the next step.

T1 sequence (O42275 24-633): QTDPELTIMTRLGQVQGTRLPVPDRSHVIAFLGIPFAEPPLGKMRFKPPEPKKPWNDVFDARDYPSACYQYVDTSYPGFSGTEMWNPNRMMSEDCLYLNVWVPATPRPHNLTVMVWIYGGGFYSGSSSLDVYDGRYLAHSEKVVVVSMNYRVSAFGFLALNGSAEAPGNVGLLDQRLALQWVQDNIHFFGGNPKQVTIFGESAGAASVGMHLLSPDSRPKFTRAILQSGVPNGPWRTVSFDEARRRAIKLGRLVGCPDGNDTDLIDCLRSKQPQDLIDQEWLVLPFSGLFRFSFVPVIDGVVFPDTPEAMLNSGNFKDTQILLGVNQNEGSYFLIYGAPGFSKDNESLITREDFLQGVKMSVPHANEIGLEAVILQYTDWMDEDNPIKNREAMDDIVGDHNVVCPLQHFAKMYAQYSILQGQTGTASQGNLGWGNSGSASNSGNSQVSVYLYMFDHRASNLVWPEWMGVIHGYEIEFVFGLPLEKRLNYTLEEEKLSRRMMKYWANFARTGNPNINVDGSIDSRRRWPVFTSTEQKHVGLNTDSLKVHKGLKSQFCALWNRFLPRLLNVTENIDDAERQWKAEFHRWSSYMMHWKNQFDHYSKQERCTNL

Row | Molecule | % Inhibition of deoxyribose degradation, Non Site-Specific [1] [%] | IC50 [2] [µM] | Protection against Aβ25-35 (neuro-2A cells [3]) | effect on Th-T fluorescence (in words) (Aβ25-35) | Decrease of ThT Fluorescence (Aβ25-35) | neuroprotection against Aβ25-35 (in words) (neuro-2A cells [3]; at the highest concentration (100 µM)) | Intracellular ROS Scavenging [4] | IC50 ([1]; Fe3+/ascorbate/EDTA/H2O2 system, read-out: IC50 hydroxyl radical scavenging, Non Site-Specific) [µM] | IC50 ([1]; Fe3+/ascorbate/H2O2 system without EDTA, read-out: IC50 hydroxyl radical scavenging, Site-Specific) [µM] | IC50 ([1]; summary Table 4 (values of the non site-specific assay), read-out: Hydroxyl Radical Scavenging/IC50) [µM] | neuroprotection against H2O2-induced neurotoxicity (in words) (neuro-2A cells [5]; 6.25-100 µM, H2O2 150 µM) | Protection against H2O2 (neuro-2A cells [5]; summary Table 4) | decrease of Th-T fluorescence intensity (Aβ25-35; 50 µM) | decrease of Th-T fluorescence intensity (Aβ25-35; 100 µM)
1 | CC(=O)O[C@@H]1c2c(ccc3ccc(=O)oc23)OC(C)(C)[C@@H]1OC(=O)[C@@]1(C)O[C@H]1C [Isoepoxypteryxin (3), isoepoxypteryxin] | 6 ± 1.4 | 327 ± 3.4 | ++ | decreased Th-T fluorescence in a dose-dependent manner | ++ |  |  |  |  |  |  |  |  | 
2 | C/C=C(/C)C(=O)O[C@@H]1[C@H](OC(C)=O)c2c(ccc3ccc(=O)oc23)OC1(C)C [Isopteryxin (4), isopteryxin] | 10 ± 2.1 | 475.9 ± 1.5 | + | weak activity | + | significant neuroprotection (p < 0.05) |  |  |  |  |  |  |  | 
3 | kaempferol-3-O-rutinoside [Kaempferol-3-O-rutinoside (14)] |  |  | ++ | decreased Th-T fluorescence in a dose-dependent manner | ++ |  | + | 1030 ± 25.7 | 1540 ± 20.8 | 1030 ± 25.7 | significant (p < 0.05) increase in cell viability at 100 µM | + | 12% ±3.7% | 33% ± 2.5%
